Assay results from ChEMBL document CHEMBL6078630, “Design, synthesis, and bioactivity investigation of novel cyclic lipopeptide antibiotics targeting top-priority multidrug-resistant gram-negative bacteria” (Eur J Med Chem, 2024).
Converted amounts (≈) assume the structure as drawn. Bridge positions count the residues as written; N and C are the ends. Square brackets hold non-standard residues; d marks the D form. Peptide text beside a SMILES is read from it. * marks the point of attachment. Heptanoyl(6-Me) = CC(C)CCCCC(=O)*; dOrn = NCCC[C@@H](N)C(=O)O; dDab = NCC[C@@H](N)C(=O)O; Orn = NCCC[C@H](N)C(=O)O; Dab = NCC[C@H](N)C(=O)O; Dap = NC[C@H](N)C(=O)O

Key:
Klebsiella pneumoniae [1] = assay: Antibacterial activity against carbapenem-resistant Klebsiella pneumoniae ATCC BAA-1705 assessed as inhibition of bacterial growth incubated for 16 to 20 hrs by CLSI protocol based broth microdilution method; assay type: functional; details: time 16-20 hrs
Klebsiella pneumoniae [2] = assay: Antibacterial activity against carbapenem-resistant Klebsiella pneumoniae clinical isolate KPN+19-15 assessed as inhibition of bacterial growth incubated for 16 to 20 hrs by CLSI protocol based broth microdilution method; assay type: functional; details: time 16-20 hrs
Pseudomonas aeruginosa [3] = assay: Antibacterial activity against carbapenem-resistant Pseudomonas aeruginosa clinical isolate 19-3 assessed as inhibition of bacterial growth incubated for 16 to 20 hrs by CLSI protocol based broth microdilution method; assay type: functional; details: time 16-20 hrs
Acinetobacter baumannii [4] = assay: Antibacterial activity against Acinetobacter baumannii NCTC 13304 (OXA-27) assessed as inhibition of bacterial growth incubated for 16 to 20 hrs by CLSI protocol based broth microdilution method; assay type: functional; details: time 16-20 hrs
[5] = Renal cytotoxicity against HK-2 cells incubated for 72 hrs by CCK8 assay; assay type: toxicity, cell-based; details: human
Escherichia coli [6] = assay: Antibacterial activity against Escherichia coli ATCC BAA-2523 assessed as inhibition of bacterial growth incubated for 16 to 20 hrs by CLSI protocol based broth microdilution method; assay type: functional; details: time 16-20 hrs
Pseudomonas aeruginosa [7] = assay: Antibacterial activity against Pseudomonas aeruginosa ATCC 27853 assessed as inhibition of bacterial growth incubated for 16 to 20 hrs by CLSI protocol based broth microdilution method; assay type: functional; details: time 16-20 hrs
Acinetobacter baumannii [8] = assay: Antibacterial activity against carbapenem-sensitive Acinetobacter baumannii clinical isolate 19-1 assessed as inhibition of bacterial growth incubated for 16 to 20 hrs by CLSI protocol based broth microdilution method; assay type: functional; details: time 16-20 hrs
Escherichia coli [9] = assay: Antibacterial activity against carbapenem-resistant Escherichia coli ATCC BAA-2340 assessed as inhibition of bacterial growth incubated for 16 to 20 hrs by CLSI protocol based broth microdilution method; assay type: functional; details: time 16-20 hrs

Row | SMILES | MIC (Klebsiella pneumoniae [1]) | MIC (Klebsiella pneumoniae [2]) | MIC (Pseudomonas aeruginosa [3]) | MIC (Acinetobacter baumannii [4]) | IC50 at 72 h [5] | MIC (Escherichia coli [6]) | MIC (Pseudomonas aeruginosa [7]) | MIC (Acinetobacter baumannii [8]) | MIC (Escherichia coli [9])
1 | CC(C)CCCCC(=O)N[C@@H](CCN)C(=O)N[C@H](C(=O)N[C@H](CCN)C(=O)N[C@H]1CCNC(=O)[C@H]([C@@H](C)O)NC(=O)[C@H](CCN)NC(=O)[C@H](CCN)NC(=O)[C@H]([C@@H](C)O)NC(=O)[C@@H](Cc2ccccc2)NC(=O)[C@H](CCN)NC1=O)[C@@H](C)O ({Heptanoyl(6-Me)}-[Dab]T[dDab][Dab][Dab][dF]T[Dab][Dab]T; lactam 4-C) | 0.125 µg/mL (≈ 0.106 µM) | ≤ 0.03 µg/mL | 0.5 µg/mL (≈ 0.425 µM) | ≤ 0.03 µg/mL | > 500 µg/mL | ≤ 0.03 µg/mL | 0.5 µg/mL (≈ 0.425 µM) | 0.06 µg/mL (≈ 0.051 µM) | ≤ 0.03 µg/mL
2 | CC(C)CCCCC(=O)N[C@@H](CCN)C(=O)N[C@H](C(=O)N[C@H](CCCN)C(=O)N[C@H]1CCNC(=O)[C@H]([C@@H](C)O)NC(=O)[C@H](CCN)NC(=O)[C@H](CCN)NC(=O)[C@H]([C@@H](C)O)NC(=O)[C@@H](Cc2ccccc2)NC(=O)[C@H](CCN)NC1=O)[C@@H](C)O ({Heptanoyl(6-Me)}-[Dab]T[dOrn][Dab][Dab][dF]T[Dab][Dab]T; lactam 4-C) | 0.06 µg/mL (≈ 0.0504 µM) | 0.125 µg/mL (≈ 0.105 µM) | 1 µg/mL (≈ 0.839 µM) | 0.06 µg/mL (≈ 0.0504 µM) | > 500 µg/mL | ≤ 0.03 µg/mL | 0.25 µg/mL (≈ 0.21 µM) | 0.125 µg/mL (≈ 0.105 µM) | ≤ 0.03 µg/mL
3 | CC(C)CCCCC(=O)N[C@@H](CCN)C(=O)N[C@H](C(=O)N[C@H](CO)C(=O)N[C@H]1CCNC(=O)[C@H]([C@@H](C)O)NC(=O)[C@H](CN)NC(=O)[C@H](CCN)NC(=O)[C@H]([C@@H](C)O)NC(=O)[C@@H](Cc2ccccc2)NC(=O)[C@H](CCN)NC1=O)[C@@H](C)O ({Heptanoyl(6-Me)}-[Dab]T[dS][Dab][Dab][dF]T[Dab][Dap]T; lactam 4-C) | 0.06 µg/mL (≈ 0.0522 µM) | ≤ 0.03 µg/mL | 8 µg/mL (≈ 6.95 µM) | ≤ 0.03 µg/mL | > 500 µg/mL | ≤ 0.03 µg/mL | 8 µg/mL (≈ 6.95 µM) | 0.06 µg/mL (≈ 0.0522 µM) | ≤ 0.03 µg/mL
4 | CC(C)CCCCC(=O)N[C@@H](CCN)C(=O)N[C@H](C(=O)N[C@H](CO)C(=O)N[C@H]1CCNC(=O)[C@H]([C@@H](C)O)NC(=O)[C@H](CCCN)NC(=O)[C@H](CCN)NC(=O)[C@H]([C@@H](C)O)NC(=O)[C@@H](Cc2ccccc2)NC(=O)[C@H](CCN)NC1=O)[C@@H](C)O ({Heptanoyl(6-Me)}-[Dab]T[dS][Dab][Dab][dF]T[Dab][Orn]T; lactam 4-C) | 1 µg/mL (≈ 0.849 µM) | 0.5 µg/mL (≈ 0.424 µM) | > 64 µg/mL | 8 µg/mL (≈ 6.79 µM) | > 500 µg/mL | 0.25 µg/mL (≈ 0.212 µM) | > 64 µg/mL | 8 µg/mL (≈ 6.79 µM) | 0.25 µg/mL (≈ 0.212 µM)
5 | CC(C)CCCCC(=O)N[C@@H](CCN)C(=O)N[C@H](C(=O)N[C@H](CO)C(=O)N[C@H]1CCNC(=O)[C@H]([C@@H](C)O)NC(=O)[C@H](CCN)NC(=O)[C@H](CCCN)NC(=O)[C@H]([C@@H](C)O)NC(=O)[C@@H](Cc2ccccc2)NC(=O)[C@H](CCN)NC1=O)[C@@H](C)O ({Heptanoyl(6-Me)}-[Dab]T[dS][Dab][Dab][dF]T[Orn][Dab]T; lactam 4-C) | 0.25 µg/mL (≈ 0.212 µM) | 0.125 µg/mL (≈ 0.106 µM) | 8 µg/mL (≈ 6.79 µM) | 0.125 µg/mL (≈ 0.106 µM) | > 500 µg/mL | 0.125 µg/mL (≈ 0.106 µM) | 4 µg/mL (≈ 3.39 µM) | 0.125 µg/mL (≈ 0.106 µM) | 0.06 µg/mL (≈ 0.0509 µM)
6 | CC(C)CCCCC(=O)N[C@@H](CCN)C(=O)N[C@H](C(=O)N[C@H](CO)C(=O)N[C@H]1CCNC(=O)[C@H]([C@@H](C)O)NC(=O)[C@H](CCN)NC(=O)[C@H](CCN)NC(=O)[C@H]([C@@H](C)O)NC(=O)[C@@H](Cc2ccccc2)NC(=O)[C@H](CN)NC1=O)[C@@H](C)O ({Heptanoyl(6-Me)}-[Dab]T[dS][Dab][Dap][dF]T[Dab][Dab]T; lactam 4-C) | 0.25 µg/mL (≈ 0.217 µM) | 0.06 µg/mL (≈ 0.0522 µM) | 64 µg/mL (≈ 55.6 µM) | 0.25 µg/mL (≈ 0.217 µM) | > 500 µg/mL | 0.06 µg/mL (≈ 0.0522 µM) | > 64 µg/mL | 0.25 µg/mL (≈ 0.217 µM) | 0.06 µg/mL (≈ 0.0522 µM)
7 | CC(C)CCCCC(=O)N[C@@H](CCN)C(=O)N[C@H](C(=O)N[C@H](CO)C(=O)N[C@H]1CCNC(=O)[C@H]([C@@H](C)O)NC(=O)[C@H](CCN)NC(=O)[C@H](CCN)NC(=O)[C@H]([C@@H](C)O)NC(=O)[C@@H](Cc2ccccc2)NC(=O)[C@H](CCCN)NC1=O)[C@@H](C)O ({Heptanoyl(6-Me)}-[Dab]T[dS][Dab][Orn][dF]T[Dab][Dab]T; lactam 4-C) | 8 µg/mL (≈ 6.79 µM) | 64 µg/mL (≈ 54.3 µM) | > 64 µg/mL | 64 µg/mL (≈ 54.3 µM) | > 500 µg/mL | 8 µg/mL (≈ 6.79 µM) | > 64 µg/mL | > 64 µg/mL | 4 µg/mL (≈ 3.39 µM)
8 | CC(C)CCCCC(=O)N[C@@H](CN)C(=O)N[C@H](C(=O)N[C@H](CO)C(=O)N[C@H]1CCNC(=O)[C@H]([C@@H](C)O)NC(=O)[C@H](CCN)NC(=O)[C@H](CCN)NC(=O)[C@H]([C@@H](C)O)NC(=O)[C@@H](Cc2ccccc2)NC(=O)[C@H](CCN)NC1=O)[C@@H](C)O ({Heptanoyl(6-Me)}-[Dap]T[dS][Dab][Dab][dF]T[Dab][Dab]T; lactam 4-C) | 0.25 µg/mL (≈ 0.217 µM) | 0.5 µg/mL (≈ 0.435 µM) | 4 µg/mL (≈ 3.48 µM) | 0.25 µg/mL (≈ 0.217 µM) | > 500 µg/mL | ≤ 0.03 µg/mL | 64 µg/mL (≈ 55.6 µM) | 0.25 µg/mL (≈ 0.217 µM) | ≤ 0.03 µg/mL
9 | CC(C)CCCCC(=O)N[C@@H](CCCN)C(=O)N[C@H](C(=O)N[C@H](CO)C(=O)N[C@H]1CCNC(=O)[C@H]([C@@H](C)O)NC(=O)[C@H](CCN)NC(=O)[C@H](CCN)NC(=O)[C@H]([C@@H](C)O)NC(=O)[C@@H](Cc2ccccc2)NC(=O)[C@H](CCN)NC1=O)[C@@H](C)O ({Heptanoyl(6-Me)}-[Orn]T[dS][Dab][Dab][dF]T[Dab][Dab]T; lactam 4-C) | 0.5 µg/mL (≈ 0.424 µM) | 0.5 µg/mL (≈ 0.424 µM) | 64 µg/mL (≈ 54.3 µM) | 4 µg/mL (≈ 3.39 µM) | > 500 µg/mL | 0.25 µg/mL (≈ 0.212 µM) | > 64 µg/mL | 4 µg/mL (≈ 3.39 µM) | 0.25 µg/mL (≈ 0.212 µM)
